Results as given in paper PMC8366683 (Future oncology (London, England), 2013).
pIC50: −log10 of the molar value. Read-outs that look alike come from different tables or passages of the source.

Key:
HEK293/pcDNA3.1 [1] = assay: cells; details: Homo sapiens, HEK293, 72 h, read-out: IC50 ± SD^†; nM (resistance fold) / HEK293/pcDNA3.1
ABCG2-482-G2 = assay: cells; details: 72 h, read-out: IC50 ± SD^†; nM (resistance fold) / ABCG2-482-G2
ABCG2-482-T7 = assay: cells; details: 72 h, read-out: IC50 ± SD^†; nM (resistance fold) / ABCG2-482-T7
ABCG2-482-R2 = assay: cells; details: 72 h, read-out: IC50 ± SD^†; nM (resistance fold) / ABCG2-482-R2
HEK293/pcDNA3.1 [2] = assay: cells; details: Homo sapiens, HEK293, 72 h, read-out: IC50 ± SD^†; nM (resistance fold) / HEK293/pcDNA3.1; remark: listed apart in the source
HEK/ABCB1 = assay: cells; details: 72 h, read-out: IC50 ± SD^†; nM (resistance fold) / HEK/ABCB1
ABCB1 (P-glycoprotein) = ABCB1 (P-glycoprotein) (Homo sapiens, UniProt P08183); assay: competition of […]-IAAP photoaffinity labeling; format: binding
Sequence of ABCB1 (P-glycoprotein) (P08183 whole entry): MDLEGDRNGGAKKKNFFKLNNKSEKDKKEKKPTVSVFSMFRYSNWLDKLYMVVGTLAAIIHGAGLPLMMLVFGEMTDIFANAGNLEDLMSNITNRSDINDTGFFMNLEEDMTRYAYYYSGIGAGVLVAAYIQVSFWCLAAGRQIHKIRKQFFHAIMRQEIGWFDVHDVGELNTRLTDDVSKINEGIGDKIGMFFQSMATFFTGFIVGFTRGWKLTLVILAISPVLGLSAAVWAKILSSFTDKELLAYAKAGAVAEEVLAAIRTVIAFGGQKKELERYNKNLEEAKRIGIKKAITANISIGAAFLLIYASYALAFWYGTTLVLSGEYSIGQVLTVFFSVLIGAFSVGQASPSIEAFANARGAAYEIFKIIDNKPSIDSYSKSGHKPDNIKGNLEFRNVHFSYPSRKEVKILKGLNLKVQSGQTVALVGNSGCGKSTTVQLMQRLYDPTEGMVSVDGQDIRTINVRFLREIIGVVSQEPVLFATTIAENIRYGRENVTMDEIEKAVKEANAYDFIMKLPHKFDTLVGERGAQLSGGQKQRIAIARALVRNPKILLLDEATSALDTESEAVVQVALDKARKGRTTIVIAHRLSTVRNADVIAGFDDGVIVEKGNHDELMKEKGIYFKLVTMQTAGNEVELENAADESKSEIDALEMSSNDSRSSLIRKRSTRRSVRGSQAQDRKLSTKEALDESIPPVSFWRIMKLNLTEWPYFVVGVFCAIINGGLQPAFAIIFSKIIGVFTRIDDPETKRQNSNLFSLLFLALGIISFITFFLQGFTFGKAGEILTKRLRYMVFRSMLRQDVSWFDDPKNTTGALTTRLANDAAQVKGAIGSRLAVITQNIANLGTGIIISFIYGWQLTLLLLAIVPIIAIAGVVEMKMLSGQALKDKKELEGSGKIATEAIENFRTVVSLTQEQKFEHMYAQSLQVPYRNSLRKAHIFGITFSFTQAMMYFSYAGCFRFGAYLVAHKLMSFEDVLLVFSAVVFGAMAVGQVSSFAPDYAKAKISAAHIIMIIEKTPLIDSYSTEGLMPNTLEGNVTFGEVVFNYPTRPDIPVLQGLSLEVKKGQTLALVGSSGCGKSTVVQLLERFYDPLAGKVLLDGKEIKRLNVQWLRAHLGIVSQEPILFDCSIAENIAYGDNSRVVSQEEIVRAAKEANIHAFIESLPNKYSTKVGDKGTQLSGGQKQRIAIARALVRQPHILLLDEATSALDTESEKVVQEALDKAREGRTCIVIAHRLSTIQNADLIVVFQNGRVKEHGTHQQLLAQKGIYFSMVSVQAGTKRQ

KB-C2 = assay: cells; details: Homo sapiens, KB-C2, 72 h, read-out: IC50 ± SD^†; nM (resistance fold) / KB-C2
KB-3-1 = assay: cells; details: Homo sapiens, KB 3-1, 72 h, read-out: IC50 ± SD^†; nM (resistance fold) / KB-3-1

SMILES: CCc1c2c(nc3ccc(O)cc13)-c1cc3c(c(=O)n1C2)COC(=O)[C@]3(O)CC [SN-38]
- IC50 (HEK293/pcDNA3.1 [1]): 2.1 nM
- IC50 (ABCG2-482-G2): 152 nM
- IC50 (ABCG2-482-T7): 162 nM
- IC50 (ABCG2-482-R2): 71.6 nM

SMILES: CC[C@]1(O)C[C@H]2CN(CCc3c([nH]c4ccccc34)[C@@](C(=O)OC)(c3cc4c(cc3OC)N(C=O)[C@H]3[C@@](O)(C(=O)OC)[C@H](OC(C)=O)[C@]5(CC)C=CCN6CC[C@]43[C@@H]65)C2)C1 [Vincristine]
- IC50 (HEK293/pcDNA3.1 [2]): 4.1 nM
- IC50 (HEK/ABCB1): 1410 nM

SMILES: COc1cc2nccc(Oc3ccc(NC(=O)Nc4cc(C)on4)c(Cl)c3)c2cc1OC [tivozanib]
- pIC50 (ABCB1 (P-glycoprotein)): 5.54

SMILES: CC[C@]1(O)C[C@@H]2CN(CCc3c([nH]c4ccccc34)[C@@](C(=O)OC)(c3cc4c(cc3OC)N(C)[C@H]3[C@@](O)(C(=O)OC)[C@H](OC(C)=O)[C@]5(CC)C=CCN6CC[C@]43[C@@H]65)C2)C1 [Vinblastine]
- IC50 (KB-C2): 34.4 nM
- IC50 (KB-3-1): 0.2 nM

SMILES: CC(=O)O[C@H]1C(=O)[C@@]2(C)[C@H]([C@H](OC(=O)c3ccccc3)[C@]3(O)C[C@H](OC(=O)[C@H](O)[C@@H](NC(=O)c4ccccc4)c4ccccc4)C(C)=C1C3(C)C)[C@]1(OC(C)=O)CO[C@@H]1C[C@@H]2O [paclitaxel]
- IC50 (KB-C2): 4930 nM
- IC50 (KB-3-1): 6.5 nM
- IC50 (HEK293/pcDNA3.1 [2]): 28.3 nM
- IC50 (HEK/ABCB1): 8480 nM

SMILES: COc1cccc2c1C(=O)c1c(O)c3c(c(O)c1C2=O)C[C@@](O)(C(=O)CO)C[C@@H]3O[C@H]1C[C@H](N)[C@H](O)[C@H](C)O1 [Doxorubicin]
- IC50 (HEK293/pcDNA3.1 [1]): 16.6 nM
- IC50 (ABCG2-482-G2): 168 nM
- IC50 (ABCG2-482-T7): 133 nM
- IC50 (ABCG2-482-R2): 62.1 nM

SMILES: O=C1c2c(O)ccc(O)c2C(=O)c2c(NCCNCCO)ccc(NCCNCCO)c21 [mitoxantrone]
- IC50 (HEK293/pcDNA3.1 [1]): 35.7 nM
- IC50 (ABCG2-482-G2): 179 nM
- IC50 (ABCG2-482-T7): 190 nM
- IC50 (ABCG2-482-R2): 167 nM
